In the assay the test system is blood pressure of anesthetized Sprague-Dawley IGS male rats. The assay is described as follows: Hypotensive activity in anesthetized rats, invasive blood pressure measurement after intravenous administration. The format is in vivo, rat. Particulars: for Hypotensive activity (dose/rat) 10 nmol / Hypotensive activity (dose/rat) 30 nmol / Hypotensive activity (dose/rat) 100 nmol: anesthetized rats, intravenous; for Hypotensive activity (dose/rat) 10 nmol: 10 nmol/rat; for Hypotensive activity (dose/rat) 30 nmol: 30 nmol/rat; for Hypotensive activity (dose/rat) 100 nmol: 100 nmol/rat. The protocol:
50 mg/kg pentobarbital sodium was intraperitoneally administered to 8- to 10-week-old Sprague-Dawley IGS male rats (Charles River Laboratories Japan, Inc.) for anesthesia. Thereafter, a tracheal cannula (PE 250), a femoral vein cannula (PE50), and a femoral artery cannula (PESO) were inserted into each rat. The femoral artery cannula was connected with a pressure transducer (PE23XL; manufactured by Nihon Kohden Corporation), and an apparatus formed by incorporating a blood pressure measurement unit (AP-641G; manufactured by Nihon Kohden Corporation) and an instantaneous heart rate measurement unit (AT-601G; manufactured by Nihon Kohden Corporation) into a multi-purpose preamplifier (RP-6004; manufactured by Nihon Kohden Corporation) was used to record the blood pressure and heart rate of each rat. The blood pressure was calibrated using a mercury manometer included in a stand-type electromanometer (MP-25S; manufactured by Nihon Kohden Corporation). The recording paper was adjusted, such that 10 mm or 20 mm on the recording paper corresponded to 100 mmHg.
Each peptide was dissolved in a concentration of 1 mM or 10 mM in a 0.1% acetic acid solution to prepare a peptide solution. Thereafter, depending on dose, it was diluted with a normal saline containing 0.1% bovine serum albumin (Fr.V). In the case of the dose of 10 nmol/rat, a 1 mM peptide solution was 10 times diluted, and 100 μl of the diluted solution was administered. In the case of the dose of 30 nmol/rat, a 1 mM peptide solution was 10 times diluted, and 300 μL, of the diluted solution was administered. In the case of the dose of 100 nmol/rat, a 10 mM peptide solution was 10 times diluted, and 100 μL of the diluted solution was administered. Each peptide was intravenously administered via the femoral vein cannula, and the systolic blood pressure, diastolic blood pressure, and heart rate were then measured.
Various HC021 derivative peptides were synthesized in accordance with Example 1, and such peptide was then administered to each rat at a dose of 10 nmol/rat, 30 nmol/rat, or 100 mol/rat by the method described in Example 2. Thereafter, the hypotensive activity of each derivative peptide was measured. […] The strength of such activity was determined using a median of activity in repeated experiments. In addition, in order to make a comparison among the activities of various derivative peptides, the strength of hypotensive activity was defined as follows.
Strength of Hypotensive Activity
Extremely strong activity (+++): A decrease in systolic blood pressure is 30 mmHg or more, and the time required for recovery is 5 minutes or more.
Strong activity (++): A decrease in systolic blood pressure is 20 mmHg or more and less than 30 mmHg, or the time required for recovery is less than 5 minutes.
Activity observed (+): A decrease in systolic blood pressure is less than 20 mmHg.
Activity not observed (−)
Various HC021 peptide sequence-substituted products were synthesized in accordance with Example 1, and their hypotensive activity was then measured according to the method of Example 3.

Where no end group is shown, it is not given here.

“ATLGSEDTWKPLSNPRNRDLFPRRLQAYFK-amide [Compound 35]”: under “Table 3”, the “Hypotensive activity (dose/rat) 10 nmol” value is recorded as “−”; the “Hypotensive activity (dose/rat) 30 nmol” value is “++ (Strong activity (++): A decrease in systolic blood pressure is 20 mmHg or more and less than 30 mmHg, or the time required for recovery is less than 5 minutes.)”.
Take “ATLGSEDTWKPLSNPRNRELFFRSLQAYF-amide [Compound 38]”: where the note is “Table 3”, the “Hypotensive activity (dose/rat) 10 nmol” value is reported as “−”; the “Hypotensive activity (dose/rat) 30 nmol” value is “−”; the “Hypotensive activity (dose/rat) 100 nmol” value was “++ (Strong activity (++): A decrease in systolic blood pressure is 20 mmHg or more and less than 30 mmHg, or the time required for recovery is less than 5 minutes.)”.
“ATLGSEDTWKPLSNPRNRELFFRSLQAYFK-amide [Compound 37]”: for the setting “Table 3”, the “Hypotensive activity (dose/rat) 10 nmol” value is listed as “−”; the “Hypotensive activity (dose/rat) 30 nmol” value was “−”; the “Hypotensive activity (dose/rat) 100 nmol” value is “++ (Strong activity (++): A decrease in systolic blood pressure is 20 mmHg or more and less than 30 mmHg, or the time required for recovery is less than 5 minutes.)”.
As to “ATLRNEDTWKPLSNPRNRDLFFRRLQAYFK-amide [Compound 34]”, for the setting “Table 3”, the “Hypotensive activity (dose/rat) 10 nmol” value is given as “−” and the “Hypotensive activity (dose/rat) 30 nmol” value was “+ (Activity observed (+): A decrease in systolic blood pressure is less than 20 mmHg.)”.
Take ATVRNEDKWKPLNNPRNRDLFF [Compound 1]: under “Table 1”, the “Hypotensive activity (dose/rat) 10 nmol” value was “−”, the “Hypotensive activity (dose/rat) 30 nmol” value is given as “−” and the “Hypotensive activity (dose/rat) 100 nmol” value was “−”. Further, where the note is “Table 2”, the “Hypotensive activity (dose/rat) 10 nmol” value is “−”, the “Hypotensive activity (dose/rat) 30 nmol” value is “−” and the “Hypotensive activity (dose/rat) 100 nmol” value was “−”.
“ATVRNEDKWKPLNNPRNRDLFFRRLQAYF [Compound 9]”: where the note is “Table 2”, the “Hypotensive activity (dose/rat) 30 nmol” value was “−”; the “Hypotensive activity (dose/rat) 100 nmol” value is “+++ (Extremely strong activity (+++): A decrease in systolic blood pressure is 30 mmHg or more, and the time required for recovery is 5 minutes or more.)”.
For the substance “ATVRNEDKWKPLNNPRNRDLFFRRLQAYF-amide [Compound 10]”, where the note is “Table 2”, the “Hypotensive activity (dose/rat) 10 nmol” value is reported as “−”; the “Hypotensive activity (dose/rat) 30 nmol” value is “++ (Strong activity (++): A decrease in systolic blood pressure is 20 mmHg or more and less than 30 mmHg, or the time required for recovery is less than 5 minutes.)”.
For “ATVRNEDKWKPLNNPRNRDLFFRRLQAYFK (not fully specified) [Compound 8]”, for the setting “Table 2”, the “Hypotensive activity (dose/rat) 30 nmol” value is “−”; the “Hypotensive activity (dose/rat) 100 nmol” value is “+++ (Extremely strong activity (+++): A decrease in systolic blood pressure is 30 mmHg or more, and the time required for recovery is 5 minutes or more.)”.
For “DLFFRRLQAYFK-amide (DLFFRRLQAYFK-NH2) [Compound 17]”, under “Table 2”, the “Hypotensive activity (dose/rat) 10 nmol” value was “−”; the “Hypotensive activity (dose/rat) 30 nmol” value is “++ (Strong activity (++): A decrease in systolic blood pressure is 20 mmHg or more and less than 30 mmHg, or the time required for recovery is less than 5 minutes.)”; the “Hypotensive activity (dose/rat) 100 nmol” value was “+++ (Extremely strong activity (+++): A decrease in systolic blood pressure is 30 mmHg or more, and the time required for recovery is 5 minutes or more.)”. Where the note is “anesthetized rats, 10, 30, 100 nmol/rat”, the “dose dependence of hypotensive activity” value is given as “enhanced their hypotensive activity in a dose-dependent manner”.
Consider “FFRRLQAYFK-amide (FFRRLQAYFK-NH2) [Compound 20]”, for which, where the note is “Table 2”, the “Hypotensive activity (dose/rat) 30 nmol” value is “−” and the “Hypotensive activity (dose/rat) 100 nmol” value is reported as “−”.
On to “FRRLQAYFK-amide (FRRLQAYFK-NH2) [Compound 21]”, for which, under “Table 2”, the “Hypotensive activity (dose/rat) 30 nmol” value is “−” and the “Hypotensive activity (dose/rat) 100 nmol” value is listed as “−”.
Turning to “FVPIFTYGELQRMQNRDLFFRRLQAYFK-amide (FVPIFTYGELQRMQNRDLFFRRLQAYFK-NH2) [Compound 39]”, where the note is “Table 3”, the “Hypotensive activity (dose/rat) 10 nmol” value is “−”; the “Hypotensive activity (dose/rat) 30 nmol” value is “−”; the “Hypotensive activity (dose/rat) 100 nmol” value was “+++ (Extremely strong activity (+++): A decrease in systolic blood pressure is 30 mmHg or more, and the time required for recovery is 5 minutes or more.)”.
